From patent US20240092761A1, “QUINAZOLINE COMPOUNDS AND METHODS OF USE” (IAMBIC THERAPEUTICS, INC., priority 2022, published 2024) come the findings set out here.

One test addresses CDK1/Cyclin B1 (Homo sapiens (Human), UniProt P06493). Put plainly: CDK1/Cyclin B1 ADP-Glo Kinase Assay. The class given is biochemical. The following applies: 80 uM ATP. An outline of the steps: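 CDK1/cyclin B1 (4.917 nM) preincubated 30 min with inhibitor (2% DMSO), then 80 µM ATP (Km 78.6 µM) and 0.75 µM substrate added; 90 min, room temperature, pH 7.5. ADP measured by ADP-Glo luminescence; IC50 from 4-parameter fit.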
A general note: ADP-Glo turns the ADP formed in a reaction into a luminescent signal.

In test [1] the target is CDK2/Cyclin E1 full length (Homo sapiens (Human), UniProt P24941). Kind of test: CDK2/Cyclin E1 Full Length ADP-Glo Kinase Assay. The following applies: 20 uM ATP, read-out: CDK2/ CyclinE1 IC50. Type of test: biochemical. An outline of the steps:
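Full-length human CDK2/Cyclin E1 (0.328 nM) pre-incubated 30 min with inhibitor at RT, then reacted 90 min at RT with 20 uM ATP (Km 64.78 uM) and 0.75 uM substrate in pH 7.5 HEPES, 2% DMSO. ADP measured by ADP-Glo luminescence; IC50 from 4-parameter fit of fractional velocity.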

Another test has as its target CDK4/Cyclin D1 (Homo sapiens (Human), UniProt P11802). Kind of test: CDK4/Cyclin D1 Mobility Shift Assay (MSA). The class given is biochemical. The following applies: 0.2 mM ATP, read-out: CDK4/ CyclinD1 MSA IC50. From the text: CDK4/Cyclin D1 Mobility Shift Assay (MSA)
The purpose CDK4/Cyclin D1 assay is to evaluate the inhibition (% inhibition and IC50 values) in the presence of small molecule inhibitors by using a fluorescence based microfluidic mobility shift assay. CDK4/Cyclin D1 catalyzes the production of ADP from ATP that accompanies the phosphoryl transfer to the substrate peptide 5-FAM-Dyrktide (5-FAM-RRRFRPASPLRGPPK) (Perkin Elmer Peptide 34). The mobility shift assay (MSA) electrophoretically separates the fluorescently labelled peptides (substrate and phosphorylated product) following the kinase reaction. Both substrate and product are measured, and the ratio of these values is used to generate % conversion of substrate to product by the LabChip EZ Reader. Typical reaction solutions contained 2% DMSO (+/−inhibitor), 10 mM MgCl2, 1 mM EGTA, 0.05% BSA, 2 mM DTT, 0.2 mM ATP, 0.01% Brig-35, 1.5 uM 5-FAM-Dyrktide, 2.5 nM CDK4/Cyclin D1 in 50 mM HEPES buffer at pH 7.5. The reaction was initiated with the addition of substrate solution, following a 30-minute pre-incubation of enzyme and inhibitor at 22° C. in the reaction mix. The reaction was stopped after 180 minutes by the addition of 75 uL of 500 mM EDTA and measured on a Perkin Elmer EZ reader instrument. IC50 determinations were made from a plot of the fractional velocity as a function of inhibitor concentration fit to the 4 parameters IC50 equation.

The next test has as its target CDK6/Cyclin D3 (Homo sapiens (Human), UniProt Q00534). Put plainly: CDK6/Cyclin D3 ADP-Glo Kinase Assay. The following applies: 100 uM ATP, read-out: CDK6/ CyclinD3 IC50. The class given is biochemical. Summed up:
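Recombinant human CDK6/Cyclin D3 pre-incubated 30 min with inhibitor at room temperature, then reaction started with ATP/substrate and run 90 min at room temperature. ADP formed detected by ADP-Glo luminescence; IC50 from a 4-parameter fit of fractional velocity versus inhibitor concentration.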

In another test the test system is MCF-7 cells. Put plainly: Cell Growth Inhibition, MCF-7 (CellTiterGlo, 6 days). Type of test: cell-based. The following applies: Homo sapiens, MCF7, 144 h; MCF-7, 6-day treatment, CellTiterGlo 2.0. Summed up: (§1)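 MCF-7 and OVCAR-3 cells (RPMI, 10% FBS) were seeded at 500 cells/well onto compound, typically 10–10,000 nM in half-log dilutions. Growth proceeded 6 days at 37 °C, then CellTiterGlo luminescence was read. % inhibition was taken versus control, and IC50 came from a four-parameter variable-slope fit.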

Another test has as its system OVCAR-3 cells. Kind of test: Cell Growth Inhibition, OVCAR-3 (CellTiterGlo, 6 days). The class given is cell-based. Particulars: Homo sapiens, 144 h; OVCAR-3, 6-day treatment, CellTiterGlo 2.0. Summed up: as §1
(In general: In ATP-based viability assays light output follows the ATP content of the culture.)

Some results are limits rather than exact numbers.

CDK6/Cyclin D3, sequence (Q00534 whole entry): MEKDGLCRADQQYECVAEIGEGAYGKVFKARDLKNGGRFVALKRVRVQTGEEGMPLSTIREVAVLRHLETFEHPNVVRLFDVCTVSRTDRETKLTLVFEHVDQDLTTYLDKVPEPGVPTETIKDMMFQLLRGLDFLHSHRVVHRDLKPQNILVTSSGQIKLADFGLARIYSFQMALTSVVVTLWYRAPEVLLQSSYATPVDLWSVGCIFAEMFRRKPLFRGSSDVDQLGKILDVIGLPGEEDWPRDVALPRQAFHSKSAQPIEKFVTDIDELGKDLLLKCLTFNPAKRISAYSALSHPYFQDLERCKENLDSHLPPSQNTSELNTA
CDK6/Cyclin D3, sequence (P30281 whole entry partner): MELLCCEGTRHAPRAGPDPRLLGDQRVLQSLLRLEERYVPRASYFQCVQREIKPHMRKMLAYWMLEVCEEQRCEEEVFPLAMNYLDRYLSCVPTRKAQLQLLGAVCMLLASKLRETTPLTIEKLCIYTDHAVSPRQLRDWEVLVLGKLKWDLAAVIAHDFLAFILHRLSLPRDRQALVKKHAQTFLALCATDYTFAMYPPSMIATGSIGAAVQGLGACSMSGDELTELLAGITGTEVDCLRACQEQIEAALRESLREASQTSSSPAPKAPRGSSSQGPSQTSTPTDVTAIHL
CDK4/Cyclin D1, sequence (P11802 whole entry): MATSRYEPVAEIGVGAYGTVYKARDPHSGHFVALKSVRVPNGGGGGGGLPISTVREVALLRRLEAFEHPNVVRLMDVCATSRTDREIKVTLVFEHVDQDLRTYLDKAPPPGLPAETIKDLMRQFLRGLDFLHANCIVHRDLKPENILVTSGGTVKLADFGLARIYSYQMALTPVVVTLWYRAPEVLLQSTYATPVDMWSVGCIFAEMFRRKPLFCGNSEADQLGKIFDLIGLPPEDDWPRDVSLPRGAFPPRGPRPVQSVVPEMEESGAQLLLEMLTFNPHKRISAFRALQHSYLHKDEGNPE
CDK4/Cyclin D1, sequence (P24385 whole entry partner): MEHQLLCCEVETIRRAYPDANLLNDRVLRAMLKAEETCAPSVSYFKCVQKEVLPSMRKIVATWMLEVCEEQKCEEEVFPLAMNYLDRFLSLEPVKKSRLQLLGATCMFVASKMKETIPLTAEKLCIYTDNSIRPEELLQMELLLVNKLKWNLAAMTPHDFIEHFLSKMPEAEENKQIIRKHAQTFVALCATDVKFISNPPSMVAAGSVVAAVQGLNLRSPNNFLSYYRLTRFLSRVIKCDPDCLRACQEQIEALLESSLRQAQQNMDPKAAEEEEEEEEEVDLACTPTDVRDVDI
CDK1/Cyclin B1, sequence (P06493 whole entry): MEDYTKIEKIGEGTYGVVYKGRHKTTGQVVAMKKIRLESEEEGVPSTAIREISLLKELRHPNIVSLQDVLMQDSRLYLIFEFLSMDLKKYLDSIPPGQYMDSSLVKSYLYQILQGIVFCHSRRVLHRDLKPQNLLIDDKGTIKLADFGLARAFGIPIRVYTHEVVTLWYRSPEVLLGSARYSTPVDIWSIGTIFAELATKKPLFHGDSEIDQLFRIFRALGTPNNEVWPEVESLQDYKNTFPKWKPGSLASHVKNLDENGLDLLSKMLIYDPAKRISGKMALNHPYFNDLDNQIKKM
CDK1/Cyclin B1, sequence (P14635 whole entry partner): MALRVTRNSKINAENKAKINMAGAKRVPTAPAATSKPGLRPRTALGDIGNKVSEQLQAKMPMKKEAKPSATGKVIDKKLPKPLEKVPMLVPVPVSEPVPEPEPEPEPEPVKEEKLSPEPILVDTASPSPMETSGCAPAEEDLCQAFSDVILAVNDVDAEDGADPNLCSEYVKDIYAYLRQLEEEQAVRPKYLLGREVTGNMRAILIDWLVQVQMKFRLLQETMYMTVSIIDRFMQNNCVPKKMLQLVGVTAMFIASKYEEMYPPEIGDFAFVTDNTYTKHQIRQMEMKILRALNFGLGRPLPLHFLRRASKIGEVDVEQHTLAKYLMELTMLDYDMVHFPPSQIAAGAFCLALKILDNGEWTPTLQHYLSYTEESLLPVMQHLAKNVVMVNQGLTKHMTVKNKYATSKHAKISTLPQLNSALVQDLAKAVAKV

As for `CS(=O)(=O)N1CCC(Nc2ncc3cccc(N4CCC4CO)c3n2)CC1` (stereo not drawn) [Example 10, (1-(2-((1-(methylsulfonyl)piperidin-4-yl)amino)quinazolin-8-yl)azetidin-2-yl)methanol], the IC50 at CDK1/Cyclin B1 is 200 to 500 nM; in test [1], less than 200 nM; on CDK4/Cyclin D1, less than 200 nM; on CDK6/Cyclin D3, less than 200 nM; in the test with MCF-7 cells, more than 2000 nM; in the test with OVCAR-3 cells it was more than 2000 nM.

Regarding `COCCN1CCC2(C1)CN(c1cccc3cnc(NC4CCN(S(C)(=O)=O)CC4)nc13)C2` [Example 39, 8-(6-(2-methoxyethyl)-2,6-diazaspiro[3.4]octan-2-yl)-N-(1-(methylsulfonyl)piperidin-4-yl)quinazolin-2-amine], the IC50 was 500 to 2000 nM at CDK1/Cyclin B1; less than 200 nM in test [1]; less than 200 nM at CDK4/Cyclin D1; 500 to 2000 nM on CDK6/Cyclin D3; more than 2000 nM in the test with MCF-7 cells; more than 2000 nM in the test with OVCAR-3 cells.

Regarding `CS(=O)(=O)N1CCC(Nc2ncc3cccc(N4CC5(CCNC5)C4)c3n2)CC1` [Example 31, N-(1-(methylsulfonyl)piperidin-4-yl)-8-(2,6-diazaspiro[3.4]octan-2-yl)quinazolin-2-amine], the IC50 is 200 to 500 nM on CDK1/Cyclin B1; less than 200 nM in test [1]; less than 200 nM at CDK4/Cyclin D1; 200 to 500 nM on CDK6/Cyclin D3; 500 to 2000 nM in the test on MCF-7 cells; 500 to 2000 nM in the test on OVCAR-3 cells.

For the molecule `CC(=O)N1CCC2(CCN(c3cccc4cnc(Nc5ccc6c(c5)CCN(C)C6)nc34)C2)C1` (stereo not drawn) [Example 38, 1-(7-(2-((2-methyl-1,2,3,4-tetrahydroisoquinolin-6-yl)amino)quinazolin-8-yl)-2,7-diazaspiro[4.4]nonan-2-yl)ethan-1-one], the IC50 on CDK1/Cyclin B1 was more than 2000 nM; in test [1], 200 to 500 nM; on CDK4/Cyclin D1, less than 200 nM; at CDK6/Cyclin D3 it was 200 to 500 nM; with MCF-7 cells it was 500 to 2000 nM; with OVCAR-3 cells, 500 to 2000 nM.

With `CS(=O)(=O)N1CCC(Nc2ncc3cccc(N4CC(CC#N)C4)c3n2)CC1` [Example 14, 2-(1-(2-((1-(methylsulfonyl)piperidin-4-yl)amino)quinazolin-8-yl)azetidin-3-yl)acetonitrile], the IC50 against CDK1/Cyclin B1 is 200 to 500 nM; in test [1], less than 200 nM; at CDK4/Cyclin D1, less than 200 nM; on CDK6/Cyclin D3, less than 200 nM; in the test with MCF-7 cells, more than 2000 nM; in the test on OVCAR-3 cells, more than 2000 nM.

Regarding `CN1CC2(CCN(c3cccc4cnc(NC5CCN(S(C)(=O)=O)CC5)nc34)C2)C1` [Example 24, 8-(2-methyl-2,6-diazaspiro[3.4]octan-6-yl)-N-(1-(methylsulfonyl)piperidin-4-yl)quinazolin-2-amine], the IC50 on CDK1/Cyclin B1 was 200 to 500 nM; in test [1] it was less than 200 nM; on CDK4/Cyclin D1, less than 200 nM; at CDK6/Cyclin D3, less than 200 nM; in the test with MCF-7 cells, 500 to 2000 nM; in the test on OVCAR-3 cells, 500 to 2000 nM.

Regarding `COCCN1CC2(CCN(c3cccc4cnc(Nc5ccc(N6CC7(COC7)C6)cn5)nc34)C2)C1` [Example 43, N-(5-(2-oxa-6-azaspiro[3.3]heptan-6-yl)pyridin-2-yl)-8-(2-(2-methoxyethyl)-2,6-diazaspiro[3.4]octan-6-yl)quinazolin-2-amine], the IC50 against CDK1/Cyclin B1 is more than 2000 nM; in test [1], more than 2000 nM; on CDK4/Cyclin D1, 200 to 500 nM; at CDK6/Cyclin D3, 500 to 2000 nM; with MCF-7 cells, 500 to 2000 nM; with OVCAR-3 cells, more than 2000 nM.

In the case of `CS(=O)(=O)N1CCC(Nc2ncc3cccc(N4CCC(C#N)(C5CC5)C4)c3n2)CC1` (stereo not drawn) [Example 27, 3-cyclopropyl-1-(2-((1-(methylsulfonyl)piperidin-4-yl)amino)quinazolin-8-yl)pyrrolidine-3-carbonitrile], the IC50 at CDK1/Cyclin B1 is 500 to 2000 nM; in test [1], less than 200 nM; on CDK4/Cyclin D1 it was less than 200 nM; at CDK6/Cyclin D3, less than 200 nM; with MCF-7 cells it was more than 2000 nM; with OVCAR-3 cells, more than 2000 nM.

Regarding `CC(=O)N1CCC2(CCN(c3cccc4cnc(Nc5ccc(N6CC7(COC7)C6)cn5)nc34)C2)C1` (stereo not drawn) [Example 41, 1-(7-(2-((5-(2-oxa-6-azaspiro[3.3]heptan-6-yl)pyridin-2-yl)amino)quinazolin-8-yl)-2,7-diazaspiro[4.4]nonan-2-yl)ethan-1-one], the IC50 on CDK1/Cyclin B1 was more than 2000 nM; in test [1], more than 2000 nM; on CDK4/Cyclin D1, 200 to 500 nM; at CDK6/Cyclin D3, 500 to 2000 nM; in the test on MCF-7 cells, more than 2000 nM; with OVCAR-3 cells, more than 2000 nM.

As to `CCN1CC2(C1)CN(c1ccc(Nc3ncc4cccc(N5CCC6(CCN(C(C)=O)C6)C5)c4n3)nc1)C2` (stereo not drawn) [Example 46, 1-(7-(2-((5-(6-ethyl-2,6-diazaspiro[3.3]heptan-2-yl)pyridin-2-yl)amino)quinazolin-8-yl)-2,7-diazaspiro[4.4]nonan-2-yl)ethan-1-one], the IC50 is more than 2000 nM against CDK1/Cyclin B1; more than 2000 nM in test [1]; less than 200 nM at CDK4/Cyclin D1; 200 to 500 nM on CDK6/Cyclin D3; 500 to 2000 nM in the test on MCF-7 cells; more than 2000 nM with OVCAR-3 cells.

As to `CS(=O)(=O)N1CCC(Nc2ncc3cccc(N4CC5(CC(O)C5)C4)c3n2)CC1` [Example 18, 2-(2-((1-(methylsulfonyl)piperidin-4-yl)amino)quinazolin-8-yl)-2-azaspiro[3.3]heptan-6-ol], the IC50 against CDK1/Cyclin B1 is less than 200 nM; in test [1], less than 200 nM; on CDK4/Cyclin D1 it was less than 200 nM; at CDK6/Cyclin D3, less than 200 nM; with MCF-7 cells, 500 to 2000 nM; in the test with OVCAR-3 cells, 500 to 2000 nM.

For the molecule `CC(=O)N1CCC2(CCN(c3cc(C(F)F)cc4cnc(Nc5ccc(N6CCN(C)CC6)cc5)nc34)C2)C1` (stereo not drawn) [Example 51, 1-(7-(6-(difluoromethyl)-2-((4-(4-methylpiperazin-1-yl)phenyl)amino)quinazolin-8-yl)-2,7-diazaspiro[4.4]nonan-2-yl)ethan-1-one], the IC50 is more than 2000 nM against CDK1/Cyclin B1; 500 to 2000 nM in test [1]; less than 200 nM on CDK4/Cyclin D1; less than 200 nM at CDK6/Cyclin D3; 500 to 2000 nM in the test with MCF-7 cells; 500 to 2000 nM in the test with OVCAR-3 cells.

For the molecule `CCN1CC2(C1)CN(c1ccc(Nc3ncc4cccc(N5CC6(CC(O)C6)C5)c4n3)nc1)C2` [Example 48, 2-(2-((5-(6-ethyl-2,6-diazaspiro[3.3]heptan-2-yl)pyridin-2-yl)amino)quinazolin-8-yl)-2-azaspiro[3.3]heptan-6-ol], the IC50 at CDK1/Cyclin B1 is more than 2000 nM; in test [1] it was more than 2000 nM; on CDK4/Cyclin D1, less than 200 nM; on CDK6/Cyclin D3, less than 200 nM; with MCF-7 cells, 500 to 2000 nM; with OVCAR-3 cells it was more than 2000 nM.

Regarding `CS(=O)(=O)N1CCC(Nc2ncc3cccc(N4CCCC5(COC5)C4)c3n2)CC1` [Example 8, N-(1-(methylsulfonyl)piperidin-4-yl)-8-(2-oxa-6-azaspiro[3.5]nonan-6-yl)quinazolin-2-amine], the IC50 was more than 2000 nM against CDK1/Cyclin B1, 200 to 500 nM in test [1], 500 to 2000 nM on CDK4/Cyclin D1 and 500 to 2000 nM on CDK6/Cyclin D3.

As for `CCN1CC2(C1)CN(c1ccc(Nc3ncc4cccc(N5CC6(CCS6(=O)=O)C5)c4n3)nc1)C2` [Example 44, 6-(2-((5-(6-ethyl-2,6-diazaspiro[3.3]heptan-2-yl)pyridin-2-yl)amino)quinazolin-8-yl)-1-thia-6-azaspiro[3.3]heptane 1,1-dioxide], the IC50 against CDK1/Cyclin B1 is more than 2000 nM; in test [1] it was more than 2000 nM; at CDK4/Cyclin D1 it was less than 200 nM; on CDK6/Cyclin D3 it was 200 to 500 nM; in the test on OVCAR-3 cells, more than 2000 nM.
